# Experimental data: patent US11358959B2, “Benzothiophene and benzothiazole compounds and methods of use thereof” (Araxes Pharma LLC, priority 2017, dated 2022)
# Biological target: T1, KRAS G12C 1-169, his-tagged protein, GDP-loaded (Homo sapiens, UniProt P01116, G12C)
# T1 construct: KRAS G12C 1-169, his-tagged protein, GDP-loaded; His
# Assay: Biochemical assay: covalent binding to KRAS G12C by mass spectrometry
# Conditions: covalently bind to KRAS G12C after a thirty minute incubation period
# Procedure: Test compounds were prepared as 10 mM stock solutions in DMSO (Fisher cat #BP-231-100). KRAS G12C 1-169, his-tagged protein, GDP-loaded was diluted to 2 μM or 0.5 μM in buffer (20 mM Hepes, 150 mM NaCl, 1 mM MgCl2). Compounds were tested for activity as follows:
# Compounds were diluted to 50× final test concentration in DMSO in 96-well storage plates. Compound stock solutions were vortexed before use and observed carefully for any sign of precipitation. Dilutions were as follow: • For 100 μM final compound concentration, compounds were diluted to 5000 μM (5 μL 10 mM compound stock+5 μL DMSO and mixed well by pipetting. • For 30 […] final compound concentration, compounds were diluted to 1500 μM (3 μL 10 mM compound stock+17 μL DMSO) and mixed well by pipetting. • For 10 μM final compound concentration, compounds were diluted to 500 μM (2 μL 10 mM compound stock+38 μL DMSO) and mixed well by pipetting. 49 μL of the stock protein solution was added to each well of a 96-well PCR plate (Fisher cat #1423027). 1 μl of the diluted 50× compounds were added to appropriate wells in the PCR plate using 12-channel pipettor. Reactions were mixed carefully and thoroughly by pipetting up/down with a 200 μL multi-channel pipettor. The plate was sealed well with aluminum plate seal, and stored in drawer at room temperature for 10 minutes, 30 minutes, 2 hours or 24 hours. 5 μL of 2% formic acid (Fisher cat #A117) in de-ionized H2O was then added to each well followed by mixing with a pipette. The plate was then resealed with aluminum seal and stored on dry ice until analyzed as described below.
# The above described assays were analyzed by mass spectrometry according to one of the following two procedures:
# The MS instrument is set to positive polarity, 2 GHz resolution, and low mass (1700) mode and allowed to equilibrate for 30 minutes. The instrument is then calibrated, switched to acquisition mode and the appropriate method loaded.
# After another 30 minute equilibration time, a blank batch (i.e., buffer) is run to ensure equipment is operating properly. The samples are thawed at 37° C. for 10 minutes, briefly centrifuged, and transfer to the bench top. Wells A1 and H12 are spiked with 1 μL 500 μM internal standard peptide, and the plates centrifuged at 2000×g for 5 minutes. The method is then run and masses of each individual well recorded.
# The masses (for which integration data is desired) for each well are pasted into the platemap and exported from the analysis. Masses for the internal standards are exported as well. The data at 50 ppm is extracted for the +19 charge state, and identity of well A1 is assigned using the internal standard spike and integrated. Peak data is exported as a TOF list and the above steps are repeated individually, for the +20, 21, 22, 23, 24, and 25 charge states.
# The masses and peak intensities of KRAS G12C protein species were measured using a Dionex RSLCnano system (Thermo Scientific) connected to a Q Exactive Plus mass spectrometer (Thermo Scientific).
# […] of sample was each loaded onto a Aeris™ 3.6 μm WIDEPORE C4 200 Å, LC Column 50×2.1 mm column maintained at 40° C. at a flow rate of 600 μL/min with 20% Solvent A (0.1% formic acid in H2O) and 80% Solvent B (0.1% formic acid in acetonitrile). The liquid chromatography conditions were 20% solvent B for 1 minute, 20% to 60% solvent B for 1.5 minutes, 60% to 90% solvent for 0.5 minute, 90% solvent B for 0.2 minute, 90% to 20% solvent B for 0.2 minute, and then equilibrated for 1.6 minute before the following sample injection. The flow rate was maintained at 600 μL/min throughout the sample analysis.
# The mass spectrometer was operated in profile mode at a resolution of 17500, 5 microscans, using 50 msec max injection time and an AGC target of 1×10^6, and a full mass range from 800-1850 m/z was recorded. The HCD trapping gas was optimized for maximum sensitivity for intact proteins. […]
# T1 sequence (P01116 1-169 isoform P01116-2 G12C): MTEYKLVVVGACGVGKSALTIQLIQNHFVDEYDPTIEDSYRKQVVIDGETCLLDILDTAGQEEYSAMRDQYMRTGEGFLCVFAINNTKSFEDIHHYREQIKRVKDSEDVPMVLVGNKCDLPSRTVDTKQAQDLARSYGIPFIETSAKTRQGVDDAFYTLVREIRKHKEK
row,SMILES,Binding %
1,"C=CC(=O)N1CC(c2ccc3cc(-c4cc(O)cc5ccccc45)sc3c2)C1 [Compound 1, 1-(3-(2-(3-hydroxynaphthalen-1-yl)benzo[b]thiophen-6-yl)azetidin-1-yl)prop-2-en-1-one]",+++ (+++ indicates binding activity greater than 50%)
2,"C=CC(=O)N1CC(c2ccc3cc(-c4c(C)ccc5[nH]ncc45)sc3c2)C1 [Compound 2, 1-(3-(2-(5-methyl-1H-indazol-4-yl)benzo[b]thiophen-6-yl)azetidin-1-yl)prop-2-en-1-one]",++ (++ indicates binding activity from 10 to 50%)
3,"C=CC(=O)N1CC(c2ccc3nc(-c4c(C)ccc5[nH]ncc45)sc3c2)C1 [Compound 3, 1-(3-(2-(5-methyl-1H-indazol-4-yl)benzo[d]thiazol-6-yl)azetidin-1-yl)prop-2-en-1-one]",+ (+ indicates binding activity up to 10%)
4,"C=CC(=O)N1CC(c2ccc3nc(-c4cc(O)cc5ccccc45)sc3c2)C1 [Compound 4, 1-(3-(2-(3-hydroxynaphthalen-1-yl)benzo[d]thiazol-6-yl)azetidin-1-yl)prop-2-en-1-on]",+++ (+++ indicates binding activity greater than 50%)
5,"C=CC(=O)N1CC(c2ccc3nc(-c4cc(O)cc5ccccc45)oc3c2)C1 [Compound 5, 1-(3-(2-(3-hydroxynaphthalen-1-yl)benzo[d]oxazol-6-yl)azetidin-1-yl)prop-2-en-1-one]",+++ (+++ indicates binding activity greater than 50%)
6,"C=CC(=O)N1CC(c2ccc3nc(-c4c(C)ccc5[nH]ncc45)oc3c2)C1 [Compound 6, 1-(3-(2-(5-methyl-1H-indazol-4-yl)benzo[d]oxazol-6-yl)azetidin-1-yl)prop-2-en-1-one]",++ (++ indicates binding activity from 10 to 50%)
